According to US11254958B1, “Metabolic engineering of E coli with thio-phosphate” (priority 2018, dated 2022):

Columns and labels:
E coli K12 bacteria = experiment: Microarray analysis (Affymetrix E. coli Genome 2.0); type: cell-based
Method: E coli K12 bacteria were grown in high citrate minimal media with 5.4 g/L of thiophosphate or 2.4 g/L of Na2HPO4 for up to 12 hrs. The use of high citrate media was chosen to help lower the total amount of thiophosphate needed for growth when compared to regular M9 media (1). The media is prepared as follows: thiophosphate, 5.4 g/L; KCL 1.5 g/L; (NH4)2SO4, 2 g/L; sodium citrate 2H2O, 10 g/L. Adjust the pH to 7.5 and sterile filter the solution. Then add the following: MgSO4-7H2O, 0.2 g/L (sterilized separately as a conc. solution); glucose, 2 g/L sterilized separately by filtration). Glucose can also be sterilized by autoclaving separately. CaCl2 (11 mg/L) is also be added as needed.
Both Microarray and RNA seq analysis was performed. Total RNA was used for both studies. For microarray studies, raw Affymetrix CEL files (E. coli Genome 2.0) were normalized to produce probeset-level expression values for all probesets with Expression Console (version 1.4.1.46), using the Robust Multiarray Average (RMA) and Detection Above BackGround (DABG) (Irizarry R. A et al. 2003, Biostatistics 4(2): 249-64. doi:10.1093/biostatistics/4.2.249). The analysis was limited to 10,112 E. coli probesets interrogated by the array. Fold changes were computed using the R environment for statistical computing (version 2.15.1) by Boston University Microarray and Sequencing (CTSA grant #1UL1TR001430).

[1] = test system: Bacillus megaterium strain ATCC 15117; experiment: AICA production/secretion in fermentation with thio-phosphate; type: cell-based
Method: Bacillus megaterium was grown using a modified minimal media. In particular, the media contained: glucose, 60 g/L; KCL 1 g/L; MgSO4 0.4 g/L; peptone, 2 g/L; adenine, 0.25 g/L; NH4CI 8 g/L, urea, 3 g/L, calcium chloride, 0.5 g/L; as well as ferrous sulfate and manganese sulfate at 0.005 g/L. Thio-phosphate was added at levels between 2-6 g/L. For controls NaH2PO4 was add at 1 g/L.
Bacillus megaterium strain ATCC 15117 (U.S. Pat. No. 3,238,110 & 3,748,232) was used to examine the increased production of AICA using thio-phosphate. Cells were cultured at 26-30° C. for 4 days with 4 g/L of thio-phosphate or normal phosphate (1 g/L). […] The cells were pelleted, and the supernatant was acidified to pH 2 to help remove unwanted amino acids. The samples were then diluted with one volume of water and bound to activated charcoal with shaking for 2 hrs. (2 grams/20 ml) at room temp. The charcoal was collected on a filter with filtration and washed with 0.01 N HCl. AICA was then eluted with a solution of ethanol/ammonium hydroxide/water at a 1:1:2 ratio using a volume equivalent to the original supernatant. The samples were then separated and analyzed on Whatman chromatography paper using a solvent mixture of 50% butanol, 15% ethanol, and 35% water. The results indicated a ˜2× fold increase AICA per volume of cells.
Histidine and tryptophan were added to fermentation reactions to enhance AICA yield by blocking the endogenous synthesis of these amino acids. […] Fermentation reactions were typically initiated with 1.5 ml of overnight growth in nutrient broth which was then diluted into 50 ml of the reaction media. […] Despite the high activity, the growth of these cells was inhibited, almost in parallel with the amount of AICA secreted.

E coli = conditions: cited from earlier work
[2] = microarray (value outside parentheses)
[3] = 4 g/L thio-phosphate vs normal phosphate
[4] = twice as many starter cells, 50 mg each of his and trp

OP(O)(O)=S [thio-phosphate]
average fold change of 19 genes with unstable mRNAs (E coli K12 bacteria; half-lives less than or equal to 1.4 minutes): 1.0+/−2.8 | Dxs transcript fold enhancement (E coli K12 bacteria; microarray): 2.5 × fold | FabB transcript elevation (E coli K12 bacteria; microarray): 3 × | TesA transcript elevation (E coli K12 bacteria; microarray): 4 × | Udp transcript fold reduction (E coli K12 bacteria; microarray): 3.2 × fold | Upp transcript increase (E coli K12 bacteria; microarray): 2 × | accA transcript elevation (E coli K12 bacteria; microarray): 1.3 | accC transcript elevation (E coli K12 bacteria; microarray): 3.2 | accD transcript elevation (E coli K12 bacteria; microarray): 1.4 | adk transcript fold elevation (E coli K12 bacteria; microarray): 1.5 × fold | dusB transcript fold elevation (E coli K12 bacteria; microarray): ≥ 3 × fold | infB transcript fold elevation (E coli K12 bacteria; microarray): 3.1 × fold | ispD transcript fold enhancement (E coli K12 bacteria; microarray): 2.5 × fold | other IPP/DMAPP synthesis gene transcripts (the others) fold enhancement (E coli K12 bacteria; microarray): ~1.3 × fold | prsA transcript elevation (E coli K12 bacteria; microarray): < 2 × | pyrF transcript fold elevation (E coli K12 bacteria; microarray): 3.7 × fold | rlmH transcript fold elevation (E coli K12 bacteria; microarray): at least 3.4 × fold | rpoS transcript fold elevation (E coli K12 bacteria; microarray): 3 × fold | tadA transcript fold elevation (E coli K12 bacteria; microarray): ≥ 3 × fold | trmA transcript fold elevation (E coli K12 bacteria; microarray): ≥ 3 × fold | ycih transcript fold elevation (E coli K12 bacteria; microarray): 3.3 × fold | yqgf transcript fold elevation (E coli K12 bacteria; microarray): at least 3.4 × fold | dacA transcript elevation (E coli K12 bacteria; [2]): 3.6 × fold | ftsI transcript elevation (E coli K12 bacteria; [2]): 1.6 × | idtB transcript elevation (E coli K12 bacteria; [2]): 2 × | idtC transcript elevation (E coli K12 bacteria; [2]): 5.2 × | FabA, FabG, FabZ, FabI, FabF gene transcripts (E coli K12 bacteria; microarray and RNA seq): elevated | tRNA synthetases average increase (E coli K12 bacteria; microarray, 20 genes): 1.24 × fold | CspA transcript fold increase (E coli K12 bacteria; microarray, vs control): 3.1 × fold | nusA transcript fold increase (E coli K12 bacteria; microarray, vs control): 2.6 × fold | pgsA mRNA fold enhancement (E coli K12 bacteria; platform not given): 1.9 × fold | plsB mRNA fold enhancement (E coli K12 bacteria; platform not given): 1.9 × fold | pssA mRNA fold enhancement (E coli K12 bacteria; platform not given): 1.9 × fold | average fold change for 10,110 transcripts (E coli K12 bacteria; standard deviation 1.4): −0.1 | average fold change of 23 mRNAs with half-lives greater than 10 minutes (E coli K12 bacteria; standard deviation 2.44): 1.2 | effect on cells by day 4 ([1]; 100 mg of histidine and tryptophan each per liter): cell lysis | growth recovery by day 4 ([1]; 4 g/L thio-phosphate): 60-100 % of controls | growth after 24 hrs [1, 3]: the same | growth recovered by the third day [1, 3]: normal or 60% of normal levels | fold increase AICA per volume of cells ([1]; 4 g/L thio-phosphate vs normal phosphate (1 g/L), 26-30° C., 4 days): ~2 × fold | AICA levels increased ([1]; per cell mass basis compared to normal phosphate containing culture media): 2 × | cell specific yield of AICA [1, 4]: 5-6 × fold | growth of cells [1, 4]: inhibited | protein spots significantly changed (E coli; previous studies): 28% | average fold change of proteins (E coli; prior protein results): ~5 × fold | proteins decreased (E coli; prior protein results): 13% | proteins increased (E coli; prior protein results): 15%
